Assay results reported in PubChem BioAssay (NCI).
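How tested: cells in 96-well plates exposed to compound for 48 hours at five concentrations. TGI: total growth inhibition.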

What was measured:
Test in all cases: inhibition of tumour cell growth, NCI panel, 48 h
[1] = system: A549 NSCLC
[2] = system: IGROV1 ovarian
[3] = system: ACHN renal
[4] = system: SF-295 CNS
[5] = system: OVCAR-8 ovarian
[6] = system: SNB-19 CNS
[7] = system: 786-0 renal
[8] = system: MDA-N
[9] = system: A498 renal
[10] = system: NCI-H460 lung
[11] = system: OVCAR-5 ovarian

Measured: TGI

C=CCSC1=N/C(=C\c2ccc(Cl)cc2)C(=O)N1CC=C
52.4 µM: [9]
> 100 µM: all other assays above

CC1=NNC(=O)C1C1C(=O)NN=C(c2c[nH]c3ccccc23)C1Br (stereo not drawn)
54.7 µM: [4]
> 100 µM: all other assays above

O=C(Nc1ccccc1F)c1cc2ccc(O)cc2oc1=Nc1cccc(F)c1
71 µM: [11]
14.6 µM: [2]
43.8 µM: [9]
> 100 µM: [6]
57.3 µM: [10]
18.5 µM: [4]
33.7 µM: [1]
30 µM: [7]
43.3 µM: [8]
29.5 µM: [3]
23.8 µM: [5]

CC(=O)O[C@H]1CC(C)(C)C(=C=C/C(C)=C/C=C/C=C/C=C(C)/C=C2C=C(/C=C/[C@@]34O[C@]3(C)C[C@@H](O)CC4(C)C)C(=O)O/2)[C@](C)(O)C1
85.9 µM: [7]
50.2 µM: [1]
49.5 µM: [8]
7.72 µM: [2]
34.3 µM: [4]
48.7 µM: [3]
25.2 µM: [5]
68.7 µM: [11]
> 100 µM: all other assays above

COc1ccc(N2C(=O)C3c4[nH]c5ccc(OCc6ccccc6)cc5c4C4CCC(c5ccccc5)CC4C3C2=O)cc1 (stereo not drawn)
50.4 µM: [9]
> 74.3 µM: [2]
36.5 µM: [4]
47.5 µM: [5]
40.1 µM: [6]
> 39 µM: [1]
7.51 µM: [7]
> 95.8 µM: [11]
12.3 µM: [10]
> 100 µM: [8]
41.5 µM: [3]

Oc1cc(Cc2ccccc2)c(Cc2ccccc2)cc1O
3.04 µM: [8]
> 10 µM: all other assays above

S=C1c2ccc(Cl)cc2-n2cnnc2C2CSCN12 (stereo not drawn)
> 100 µM: all assays above

N#CN1C2CCC1CC(=O)C2
> 100 µM: all assays above

CC(=O)c1c(-c2cccc3ccccc23)c(C#N)c(=S)n(C2OC(CO)C(O)C(O)C2O)c1C (stereo not drawn)
> 100 µM: all assays above

O=C(O)CN(CC(=O)O)C1CCCCC1N1CC(=O)OC(=O)C1 (stereo not drawn)
> 100 µM: all assays above

O=C(O)CC(Cc1ccccc1Cl)C(=O)O (stereo not drawn)
> 100 µM: all assays above

Cc1cc(C)nc(NS(=O)(=O)c2ccc(NC(=O)c3c4ccccc4nc4ccccc34)cc2)n1
> 100 µM: all assays above

O=C(Nc1ccccc1)N(C1=NCC(CI)S1)c1ccc(F)c(F)c1 (stereo not drawn)
96.3 µM: [8]
> 100 µM: all other assays above

CCOC(=O)c1c(C)n(Cc2ccc(Cl)cc2Cl)c2c1cc(O)c1[nH]c3c(c12)CCCC3
61.2 µM: [3]
38.6 µM: [9]
58 µM: [6]
89.9 µM: [10]
75.2 µM: [2]
97.2 µM: [4]
45.6 µM: [8]
53.5 µM: [5]
> 100 µM: all other assays above

OC1[C@@H]2[C@@H](O)CCCN2C[C@@H](O)[C@H]1O (stereo partly drawn)
> 100 µM: all assays above

C=CCOC(=O)N1c2ccc(O[Si](C)(C)C(C)(C)C)cc2[C@@]23O[C@@]24[C@@H]1C#C/C=C\C#C[C@]3(O)C(OC)(OC)C[C@@H]4C
5.48 µM: [9]
> 100 µM: all other assays above

COc1cc2c(c(O)c1O)C(=O)C1CCC(=O)N1C2c1cccc2ccccc12 (stereo not drawn)
> 50 µM: all assays above

c1ncn(C23C4C5C6C4C2C6C53)n1 (stereo not drawn)
> 100 µM: all assays above

O=c1[nH]cc(NCCCl)c(=O)[nH]1
> 100 µM: all assays above

O=C(O)CCc1nc2c(n1-c1ccccc1)C(=O)c1ccccc1C2=O
> 100 µM: all assays above

c1ccc(/C(=N/Nc2nc3ccccc3s2)C2CCCCC2)nc1
30.6 µM: [6]
76.1 µM: [1]
31.4 µM: [9]
26.1 µM: [10]
14.4 µM: [11]
19.3 µM: [3]
21.9 µM: [7]
14.3 µM: [5]
29.9 µM: [4]
34.2 µM: [8]
16.5 µM: [2]

CCC/C(Cl)=N\OC(=O)Nc1ccc(F)cc1
24.7 µM: [3]
40.9 µM: [6]
36 µM: [11]
30.2 µM: [8]
33.3 µM: [2]
35.3 µM: [9]
> 60.9 µM: [5]
17.5 µM: [7]
> 100 µM: all other assays above

Cc1ccc(Nc2nc3[nH]ccc3c(=O)[nH]2)cc1
> 100 µM: all assays above
